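Method: 48-hour compound exposure of cells in 96-well plates, five concentrations, linear interpolation of endpoints. GI50 is the concentration that inhibits growth by half.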 The source made the active and inactive calls. Rule as the data show it: active = GI50 up to about 1.1 µM and inactive = higher.

Data on 12 molecules can be found in ChEMBL document CHEMBL1201862, “PubChem BioAssay data set” (2004).

Some test systems named below: SK-MEL-2; 786-0; MOLT-4; ACHN; SNB-75; HCC 2998; HT-29; A498; DMS-273; OVCAR-5; NCI-H23; OVCAR-8; RPMI-8226; EKVX; MCF7; HOP-92; DU-145; LOX IMVI; SN12C; T47D.
What all share (assay): growth of human tumour cells (NCI), 48 h

Regarding `O=[N+]([O-])c1ccc(/C=C/c2ccc(/C=C/c3ccc([N+](=O)[O-])cc3[N+](=O)[O-])cc2)c([N+](=O)[O-])c1`, the GI50 in the assay on SK-MEL-2, in the assay with 786-0, with MOLT-4, with ACHN, with SNB-75 and in the assay with HCC 2998 was > 100 µM (inactive) each time. For the same molecule, the GI50 with HT-29, in the assay on A498, in the assay with DMS-273, in the assay with OVCAR-5, in the assay on NCI-H23 and with OVCAR-8 was > 100 µM (inactive) each time. Besides, the GI50 in the assay with RPMI-8226 and in the assay with EKVX was > 100 µM (inactive) in each case.

On to `C1CN(c2nnc(N3CCC3)nn2)C1`, for which the GI50 in the assay with MCF7 is > 50.2 µM (inactive); in the assay with SK-MEL-2, 44.1 µM (inactive); in the assay on 786-0, 34.8 µM (inactive); in the assay with MOLT-4 it was > 100 µM (inactive); in the assay with ACHN, > 69.8 µM (inactive); with SNB-75 it was 21 µM (inactive). For the same molecule, the GI50 is > 100 µM (inactive) in the assay with HCC 2998; 35.6 µM (inactive) with HT-29; > 100 µM (inactive) with A498; > 100 µM (inactive) in the assay with HOP-92; > 43.2 µM (inactive) in the assay with DMS-273; > 100 µM (inactive) in the assay on DU-145. Moreover, the GI50 in the assay on LOX IMVI is 17.8 µM (inactive); with SN12C, 29 µM (inactive); in the assay with OVCAR-5, 41.2 µM (inactive); in the assay with NCI-H23, 30.6 µM (inactive); in the assay with T47D, > 100 µM (inactive); in the assay on OVCAR-8 it was > 100 µM (inactive). Further, the GI50 is > 100 µM (inactive) in the assay on RPMI-8226 and > 85.3 µM (inactive) in the assay on EKVX.

With `CSc1cnc2ccccc2c1Sc1c[nH]c2ccccc2c1=O`, the GI50 with SK-MEL-2 is 10.4 µM (inactive); with 786-0 it was 15.3 µM (inactive); in the assay on MOLT-4 it was 3.28 µM (inactive); in the assay with ACHN it was 15.1 µM (inactive); in the assay with SNB-75, 2.79 µM (inactive); with HCC 2998, 12.9 µM (inactive). Besides, the GI50 in the assay on HT-29 was 3.72 µM (inactive); with A498, 12.4 µM (inactive); in the assay on HOP-92, 8.39 µM (inactive); in the assay on DMS-273 it was 8.38 µM (inactive); with LOX IMVI it was 11.5 µM (inactive); in the assay on SN12C, 11.8 µM (inactive). The GI50 in the assay with OVCAR-5 was 24.4 µM (inactive); with NCI-H23 it was 11.3 µM (inactive); in the assay on OVCAR-8 it was 14 µM (inactive); in the assay on RPMI-8226 it was 6.65 µM (inactive); in the assay with EKVX it was 7.87 µM (inactive).

Take `O=S(=O)(O)CS(=O)(=O)OCCCl`: the GI50 in the assay with 786-0, in the assay with MOLT-4, in the assay with ACHN, with SNB-75, with HCC 2998 and with HT-29 was > 100 µM (inactive) throughout. For the same molecule, the GI50 with A498, in the assay with HOP-92, with DMS-273, in the assay with LOX IMVI, with SN12C and in the assay on OVCAR-5 was > 100 µM (inactive) throughout. Also, the GI50 with NCI-H23, in the assay with OVCAR-8, in the assay on RPMI-8226 and in the assay with EKVX was > 100 µM (inactive) each time.

As for `COC1/C(=C\C(C)=O)c2ccccc2N1C(C)=O` (stereo not given), the GI50 in the assay on SK-MEL-2, with 786-0, in the assay with MOLT-4, in the assay on ACHN, in the assay on SNB-75 and in the assay with HCC 2998 was > 100 µM (inactive) each time. For the same molecule, the GI50 in the assay with HT-29, in the assay on A498, in the assay on HOP-92, in the assay on DMS-273, in the assay on SN12C and in the assay with NCI-H23 was > 100 µM (inactive) each time. In addition, the GI50 with OVCAR-8, in the assay on RPMI-8226 and in the assay with EKVX was > 100 µM (inactive) throughout.

As to `CC1(SCC(N)C(=O)O)CC(=O)NC1=O` (stereo not given), the GI50 with SK-MEL-2 is > 100 µM (inactive); in the assay on 786-0, > 100 µM (inactive); in the assay on MOLT-4, > 100 µM (inactive); in the assay on ACHN, 62.4 µM (inactive); in the assay with SNB-75, > 100 µM (inactive); with HCC 2998 it was > 100 µM (inactive). The GI50 with HT-29 is > 100 µM (inactive); in the assay with A498 it was 0.42 µM (active); in the assay on HOP-92, > 100 µM (inactive); with DMS-273 it was > 100 µM (inactive); in the assay on LOX IMVI it was > 100 µM (inactive); with SN12C, > 100 µM (inactive). The GI50 in the assay on NCI-H23, in the assay with OVCAR-8, in the assay on RPMI-8226 and in the assay with EKVX was > 100 µM (inactive) each time.

Take `N#Cc1c(NN)nc(NN)c(C#N)c1-c1ccccc1`: the GI50 with SK-MEL-2, with 786-0, in the assay on MOLT-4, in the assay with ACHN, with SNB-75 and with HCC 2998 was > 100 µM (inactive) in each case. The GI50 in the assay with HT-29, in the assay with A498, with HOP-92, with DMS-273, with LOX IMVI and in the assay with SN12C was > 100 µM (inactive) throughout. Besides, the GI50 in the assay on OVCAR-5, in the assay with NCI-H23, in the assay on OVCAR-8, with RPMI-8226 and in the assay with EKVX was > 100 µM (inactive) throughout.

`Nc1nc(SCc2ccccc2Cl)c2ncn(C3OC(CO)C(O)C3O)c2n1` (stereo not given): the GI50 in the assay on SK-MEL-2 is > 100 µM (inactive); in the assay on 786-0, > 100 µM (inactive); in the assay on MOLT-4, 49.3 µM (inactive); in the assay with ACHN, > 100 µM (inactive); with SNB-75, 23.3 µM (inactive); in the assay on HCC 2998 it was > 100 µM (inactive). Also, the GI50 with HT-29 was > 100 µM (inactive); in the assay with A498, 87.3 µM (inactive); in the assay on HOP-92, 98.2 µM (inactive); in the assay with DMS-273, 65.6 µM (inactive); in the assay on LOX IMVI, 68.9 µM (inactive); with SN12C, > 100 µM (inactive). Besides, the GI50 in the assay with OVCAR-5 is > 100 µM (inactive); in the assay with NCI-H23, > 100 µM (inactive); with OVCAR-8 it was 89.9 µM (inactive); in the assay with RPMI-8226 it was 56 µM (inactive).

As to `CC(=O)CC(=O)CCCC(=O)Nc1ccc(Cl)cc1C`, the GI50 with SK-MEL-2, in the assay on 786-0, with MOLT-4, in the assay on ACHN, in the assay with HCC 2998 and with HT-29 was > 100 µM (inactive) throughout. Moreover, the GI50 in the assay on A498, in the assay with HOP-92, in the assay with DMS-273, with LOX IMVI, in the assay on SN12C and in the assay on OVCAR-5 was > 100 µM (inactive) each time. Besides, the GI50 with NCI-H23, with OVCAR-8, with RPMI-8226 and with EKVX was > 100 µM (inactive) throughout.

Take `COc1ccc(/C(Cl)=C/c2ccc(Cl)c(Cl)c2)cc1`: the GI50 in the assay with 786-0 is 32.5 µM (inactive); in the assay on MOLT-4, 16.2 µM (inactive); with ACHN, 24.8 µM (inactive); in the assay on SNB-75, 28.5 µM (inactive); in the assay on HCC 2998, 19.8 µM (inactive); with HT-29, 18.3 µM (inactive). For the same molecule, the GI50 with A498 is 24.9 µM (inactive); in the assay with HOP-92, 30.1 µM (inactive); in the assay with DMS-273, 24.4 µM (inactive); in the assay with SN12C, 29.4 µM (inactive); in the assay with NCI-H23, 19 µM (inactive); with OVCAR-8, 29.1 µM (inactive). Also, the GI50 is 18.2 µM (inactive) with RPMI-8226 and 20.2 µM (inactive) in the assay with EKVX.

On to `COc1ccc(/C(Cl)=C(\C=O)c2cc(OC)c(OC)c(OC)c2)cc1OC`, for which the GI50 is 19.6 µM (inactive) with SK-MEL-2; 34.4 µM (inactive) in the assay with 786-0; 22.4 µM (inactive) in the assay with MOLT-4; 26.3 µM (inactive) in the assay on ACHN; 10.8 µM (inactive) with SNB-75; 26.4 µM (inactive) in the assay with HCC 2998. Also, the GI50 in the assay with HT-29 was 12.8 µM (inactive); with A498, 37.9 µM (inactive); in the assay with HOP-92 it was 49 µM (inactive); with DMS-273, 35.8 µM (inactive); in the assay with DU-145 it was 44.7 µM (inactive); in the assay on LOX IMVI, 19.7 µM (inactive). Moreover, the GI50 was 23.2 µM (inactive) in the assay with SN12C; 67.8 µM (inactive) in the assay with OVCAR-5; 12.3 µM (inactive) with NCI-H23; 20.4 µM (inactive) in the assay on T47D; 17.8 µM (inactive) in the assay on OVCAR-8; 10.8 µM (inactive) with RPMI-8226. In addition, the GI50 in the assay on EKVX was 24.7 µM (inactive).

Regarding `COc1ccc(Br)c(CCCCC(=O)O)c1`, the GI50 in the assay on 786-0, in the assay on MOLT-4, in the assay with ACHN, in the assay with SNB-75, with HCC 2998 and in the assay on HT-29 was > 100 µM (inactive) each time. Besides, the GI50 with A498 is > 100 µM (inactive); with HOP-92 it was 2.89 µM (inactive); in the assay with DMS-273, > 100 µM (inactive); with LOX IMVI, > 100 µM (inactive); with SN12C, > 100 µM (inactive); with NCI-H23, > 100 µM (inactive). In addition, the GI50 in the assay on OVCAR-8, with RPMI-8226 and in the assay with EKVX was > 100 µM (inactive) throughout.
